Experimental data reported in patent US10047059B2, “Substituted quinoxalines for inhibiting kinase activity” (NEUPHARMA, INC., priority 2012, dated 2018).

Columns and labels:
A375 cells = experiment: Inhibition of cancer cell growth, MTT or MTS assay, A375; assay type: cell-based; settings: Homo sapiens, A-375, 72 h incubation
Method: (§1) Inhibition of cell growth by compounds was measured using MTT or MTS assay. Tumor cell lines were purchased from ATCC (American Type Culture Collection, Manassas, Va.). All cell lines were maintained in RPMI 1640 (Hyclone) supplemented with 10% fetal bovine serum (FBS, Hyclone), glutamine (2 mM, Hyclone), and antibiotics (penicillin 100 U/mL and streptomycin 50 μg/mL) at 37° C. in a humidified atmosphere of 5% CO2 in air. Taxol (as a positive control, Sigma) and compounds were dissolved in DMSO (Sigma), and the final concentration of DMSO in the medium was 1%. Tumor cells were plated in 96-well plates at densities of about 2000 (A375) or 4000 (A549 and Colo205) cells/well of a 96-well plate and allowed to adhere/grow for 24 h. They were then treated with various concentrations of drug and incubated for 72 h. For MTT method, medium was then removed by inverting and tapping the plates. 100 μL of MTT (0.5 mg/ml) was added to each well followed by an incubated at 37° C. for 4 h. MTT was then removed and 200 μL of DMSO was added to each well, and the ODs at 570 nm were measured after a 5 second shaking cycle in a 96-well spectrophotometer. For MTS method, 20 μL MTS (CellTiter 96 Aqueous One Solution, Promega) was added to each well followed by an incubated at 37° C. for 2-4 h, solutions were then directly put in a 96-well spectrophotometer, and the ODs at 490 nm were measured.
(§2) All concentrations of compounds were tested in triplicate and controls were averaged over 4 wells. IC50 was calculated by plotting the concentration of compound vs the percentage of inhibition in treated wells using GraphPad Prism 5. […] The scale utilized in Tables 7-9 is as follows: +++ less than 1000 nM; ++ between 1000 nM and 5000 nM; and + greater than 5000 nM. The scale utilized in […]

Colo205 cells = experiment: Inhibition of cancer cell growth, MTT or MTS assay, Colo205; assay type: cell-based; settings: Homo sapiens, COLO 205, 72 h incubation
Method: as §1, §2

KDR (VEGFR2) = biological target: T1, KDR (VEGFR2) (Homo sapiens, UniProt P35968); experiment: Z'-LYTE kinase inhibition assay against KDR; assay type: biochemical; settings: Z'-LYTE method
T1 construct: purchased Invitrogen
Method: Inhibitory activities of compounds against KDR (VEGFR2) were also measured by Invitrogen using Z′-LYTE® Method as described above with the following modification. The 2×KDR (VEGFR2)/Tyr 01 mixture is prepared in 50 mM HEPES pH 7.5, 0.01% BRIJ-35, 10 mM MgCl2, 1 mM EGTA. The final 10 μL Kinase Reaction consists of 0.5-11.7 ng KDR (VEGFR2) and 2 μM Tyr 01 in 50 mM HEPES pH 7.5, 0.01% BRIJ-35, 10 mM MgCl2, 1 mM EGTA. After the 1 hour Kinase Reaction incubation, 5 μL of a 1:256 dilution of Development Reagent B is added.
The scale utilized in Table 6 is as follows: +++ less than 100 nM; and ++ greater than 100 nM

BRAF = biological target: T2, BRAF (Homo sapiens, UniProt P15056); experiment: Z'-LYTE kinase inhibition assay against BRAF; assay type: biochemical; settings: Z'-LYTE method
T2 construct: purchased Invitrogen
Method: (§3) Inhibitory activities Inhibitory activities of compounds against BRAF, and BRAF V600E were measured by Invitrogen using Z′-LYTE® Method as briefly described in the following. 4× Test compounds are dissolved in 1% DMSO. […] ATP solutions are diluted to a 4×ATP working concentration in Kinase Buffer (50 mM HEPES pH 7.5, 0.01% BRIJ-35, 10 mM MgCl2, 1 mM EGTA). Reaction started by 30-second shaking of mixture consisting of 2.5 μL 4× test compound, […] and 2.5 μL 4×ATP Solution on Bar-coded Corning, low volume NBS, black 384-well plate (Corning Cat. #3676). Then the mixture was incubated for 60-minute at room temperature for the kinase reaction, followed by addition of 5 μL of a 1:1024 dilution of development reagent A and 30-second plate shake. The mixture was then incubated for another 60-minute at room temperature for development reaction. Fluorescence was read by plate reader. IC50 was calculated by plotting the concentration of compound vs the percentage of inhibition in treated wells using GraphPad Prism 5.
(§4) Table 2 and 3 show % inhibition at 1 μM of several compounds of the invention against BRAF and BRAF V600E, respectively, using Z′-LYTE® method.

Colo205 tumor xenograft = experiment: Inhibition of tumor growth in Colo205 tumor xenograft model; assay type: in vivo, BALB/c female nude mice; settings: 30 mg/kg, qd X 21, i.p.
Method: Cells were implanted in BALB/c female nude mice and grown as tumor xenografts. When tumors achieved 150-250 mm^3, mice were assigned into treatment and control groups using randomized block design based upon their tumor volumes. Each group contained 6 tumor-bearing mice. Tumors were measured twice weekly in two dimensions using a caliper, and the tumor volume was calculated from two-dimensional measurements using the equation V=0.5×a×b^2 where a and b are the long and short diameters of the tumor, respectively. Relative tumor volume (RTV) was defined as TVt/TVi, the ratio of the volume on a given day (TVt) and the volume at the start of treatment (TVi). Relative tumor growth rate (T/C) was defined as RTVT/RTVC, the ratio of relative tumor volume of treatment group (RTVT) and relative tumor volume of control group (RTVC) on a given day. Inhibition of tumor growth in a Colo205 tumor xenograft model is shown below in Table 10 for compound C14.

A549 cells = experiment: Inhibition of cancer cell growth, MTT or MTS assay, A549; assay type: cell-based; settings: Homo sapiens, 72 h incubation
Method: as §1, §2

BRAF V600E = biological target: T3, BRAF V600E (Homo sapiens, UniProt P15056, V600E); experiment: Z'-LYTE kinase inhibition assay against BRAF V600E; assay type: biochemical; settings: Z'-LYTE method
T3 construct: purchased Invitrogen
Method: as §3, §4
The scale utilized in Table 4 is as follows: +++ less than 100 nM; and ++ greater than 100 nM.

T1 sequence (P35968 20-1356): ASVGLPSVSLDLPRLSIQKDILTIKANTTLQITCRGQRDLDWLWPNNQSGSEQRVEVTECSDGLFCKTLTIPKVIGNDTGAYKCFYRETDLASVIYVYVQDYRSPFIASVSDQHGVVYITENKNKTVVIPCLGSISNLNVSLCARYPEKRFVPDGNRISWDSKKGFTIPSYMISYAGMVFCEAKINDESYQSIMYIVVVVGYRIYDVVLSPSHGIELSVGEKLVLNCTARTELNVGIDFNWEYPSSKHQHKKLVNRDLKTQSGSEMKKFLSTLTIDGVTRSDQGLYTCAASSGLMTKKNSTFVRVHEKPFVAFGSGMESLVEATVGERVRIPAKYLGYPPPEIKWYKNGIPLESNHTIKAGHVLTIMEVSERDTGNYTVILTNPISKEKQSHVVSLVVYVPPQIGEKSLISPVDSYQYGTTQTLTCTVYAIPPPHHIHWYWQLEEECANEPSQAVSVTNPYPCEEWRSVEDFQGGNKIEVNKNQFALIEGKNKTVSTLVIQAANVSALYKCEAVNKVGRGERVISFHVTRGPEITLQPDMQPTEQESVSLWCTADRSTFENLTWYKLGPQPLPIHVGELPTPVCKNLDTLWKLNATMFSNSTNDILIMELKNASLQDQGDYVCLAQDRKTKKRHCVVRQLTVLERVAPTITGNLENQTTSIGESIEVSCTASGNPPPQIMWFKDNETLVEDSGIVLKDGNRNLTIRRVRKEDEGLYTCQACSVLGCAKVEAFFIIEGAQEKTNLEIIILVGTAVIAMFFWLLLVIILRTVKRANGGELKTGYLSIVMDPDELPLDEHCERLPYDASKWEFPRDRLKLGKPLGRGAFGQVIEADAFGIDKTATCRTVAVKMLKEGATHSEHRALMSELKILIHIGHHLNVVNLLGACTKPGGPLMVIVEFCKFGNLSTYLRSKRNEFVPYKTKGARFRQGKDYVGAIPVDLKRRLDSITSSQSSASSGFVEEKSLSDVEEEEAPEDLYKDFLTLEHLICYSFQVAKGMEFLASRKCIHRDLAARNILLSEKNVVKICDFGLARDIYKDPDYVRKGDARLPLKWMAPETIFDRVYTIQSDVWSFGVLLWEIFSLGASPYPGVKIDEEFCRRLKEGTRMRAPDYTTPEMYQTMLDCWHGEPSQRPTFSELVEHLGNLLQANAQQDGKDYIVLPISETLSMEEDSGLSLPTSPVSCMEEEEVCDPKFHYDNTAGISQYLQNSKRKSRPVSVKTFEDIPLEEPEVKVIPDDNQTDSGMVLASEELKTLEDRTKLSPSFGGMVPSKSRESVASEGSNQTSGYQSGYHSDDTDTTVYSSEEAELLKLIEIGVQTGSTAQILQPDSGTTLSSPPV
T2 sequence (P15056 whole entry): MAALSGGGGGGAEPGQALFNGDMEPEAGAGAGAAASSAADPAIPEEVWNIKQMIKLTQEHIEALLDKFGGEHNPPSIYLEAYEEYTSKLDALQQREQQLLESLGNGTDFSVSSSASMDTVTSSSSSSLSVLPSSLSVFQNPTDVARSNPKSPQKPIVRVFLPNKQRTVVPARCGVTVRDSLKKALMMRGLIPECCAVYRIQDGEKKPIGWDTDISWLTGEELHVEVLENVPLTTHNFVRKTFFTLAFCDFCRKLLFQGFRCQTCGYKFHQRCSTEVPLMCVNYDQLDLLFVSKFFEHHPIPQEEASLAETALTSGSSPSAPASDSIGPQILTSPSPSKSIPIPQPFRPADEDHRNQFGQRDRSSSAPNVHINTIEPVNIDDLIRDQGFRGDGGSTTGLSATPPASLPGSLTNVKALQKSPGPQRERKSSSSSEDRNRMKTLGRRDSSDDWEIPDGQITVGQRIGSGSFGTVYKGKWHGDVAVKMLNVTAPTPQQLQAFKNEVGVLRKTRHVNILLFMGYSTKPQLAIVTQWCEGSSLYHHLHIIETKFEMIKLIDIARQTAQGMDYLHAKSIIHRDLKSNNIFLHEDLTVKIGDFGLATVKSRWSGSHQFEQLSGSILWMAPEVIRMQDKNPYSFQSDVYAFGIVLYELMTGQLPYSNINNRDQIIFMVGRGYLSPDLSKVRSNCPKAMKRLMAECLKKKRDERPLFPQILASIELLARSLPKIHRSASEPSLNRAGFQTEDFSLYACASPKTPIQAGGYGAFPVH
T3 sequence (P15056 whole entry V600E): as the sequence (P15056 whole entry) above, with V600E counted along it

Row | IC50 (A375 cells) [nM] | IC50 (Colo205 cells) [nM] | inhibition at 1 µM (KDR (VEGFR2)) [%] | IC50 (KDR (VEGFR2)) [nM] | inhibition at 1 µM (BRAF) [%] | IC50 (A549 cells) [nM] | inhibition at 1 µM (BRAF V600E) [%] | IC50 (BRAF V600E) [nM] | SMILES | T/C (relative tumor growth rate) (Colo205 tumor xenograft) [%] | Tumor Volume Post-treatment (Colo205 tumor xenograft) [mm3] | Tumor Volume Pre-treatment (Colo205 tumor xenograft; baseline) [mm3]
1 | < 1000 | < 1000 | > 89 | > 100 | < 70 | < 1000 | > 89 | > 100 | O=C(Nc1ccc(C(=O)c2ccc3ncc(N4CCNCC4)nc3c2)cc1)Nc1ccc(F)c(C(F)(F)F)c1 [Compound C14, 1-(4-fluoro-3-(trifluoromethyl)phenyl)-3-(4-(3-(piperazin-1-yl)quinoxaline-6-carbonyl)phenyl)urea] | 65 | 1016 | 233
2 | < 1000 | 1000 to 5000 | > 89 | < 100 | < 70 | < 1000 | > 89 |  | O=C(Nc1cccc(C(F)(F)F)c1)Nc1ccc(C(=O)c2ccc3ncc(N4CCNCC4)nc3c2)c(F)c1 [Compound C21, 1-(3-fluoro-4-(3-(piperazin-1-yl)quinoxaline-6-carbonyl)phenyl)-3-(3-(trifluoromethyl)phenyl)urea] |  |  | 

Row | SMILES | IC50 (A375 cells) [nM] | IC50 (Colo205 cells) [nM] | inhibition at 1 µM (KDR (VEGFR2)) [%] | IC50 (KDR (VEGFR2)) [nM] | inhibition at 1 µM (BRAF) [%] | IC50 (A549 cells) [nM] | inhibition at 1 µM (BRAF V600E) [%] | IC50 (BRAF V600E) [nM] | T/C (relative tumor growth rate) (Colo205 tumor xenograft) [%] | Tumor Volume Post-treatment (Colo205 tumor xenograft) [mm3] | Tumor Volume Pre-treatment (Colo205 tumor xenograft; baseline) [mm3]
3 | N#Cc1ccc(NC(=O)Nc2ccc(C(=O)c3ccc4ncc(N5CCNCC5)nc4c3)cc2)cc1C(F)(F)F [Compound C16, 1-(4-cyano-3-(trifluoromethyl)phenyl)-3-(4-(3-(piperazin-1-yl)quinoxaline-6-carbonyl)phenyl)urea] | < 1000 | > 5000 | > 89 | > 100 | < 70 | 1000 to 5000 | > 89 |  |  |  | 
